Test results published in US10285967B2, “Monoacylglycerols for use in conjunction with a lipase inhibitor and/or diets low in fat and/or calories” (NESTEC S.A., priority 2013, dated 2019).

Legend:
[1] = lipid maldigestion or malabsorption rat model (XENICAL-induced), EPA level in red blood cell lipids; type: in vivo; conditions: FIG. 2; for level of EPA incorporated in red blood cells: rats, day 7, with XENICAL (ORLISTAT)
Protocol: The concept was tested in a lipid maldigestion or malabsorption rat model. The maldigestion or malabsorption condition was obtained using XENICAL® (ORLISTAT), a pancreatic and gastric lipases inhibitor (tetrahydrolipstatin; see FIG. 7). Rats were fed during 21 days with long-chain polyunsaturated fatty acid (LC-PUFA) supplements containing mainly eicosapentaenoic (EPA) acid. Fish oil was used as a source of triacylglycerols, and different EPA glycerides were evaluated. XENICAL® (ORLISTAT) was given at a level sufficient to decrease lipid absorption by 40%. A group receiving fish oil without XENICAL® (ORLISTAT) was used as a positive control. At different time intervals (D3, D7, D14 and D21), the fatty acid profiles of red blood cell and plasma lipids were determined. At the end of the experiment, the fatty acid profiles of different tissues were determined.
The main objective was to follow the level of EPA in red blood cell and plasma lipids. The main comparison evaluated was the difference in EPA level between the group receiving EPA-containing sn-1(3) MAG (FIG. 1) in combination with XENICAL® (ORLISTAT) and the […] (fish oil+XENICAL® (ORLISTAT)).
This comparison corroborates the validity of the model.

[2] = clinical study of EPA delivery under lipid maldigestion induced by XENICAL (ORLISTAT); type: in vivo, human
Protocol: This clinical study compared the efficacy of sn-1(3) MAG and fish oil (TAG) in delivering EPA in humans under lipid maldigestion conditions induced by XENICAL® (ORLISTAT). The comparison was tested in volunteers having a BMI of 37-40 kg/m2 and treated with XENICAL® (ORLISTAT) to induce lipid maldigestion or not treated with XENICAL® (ORLISTAT). The primary objective was to assess accretion of EPA in erythrocytes over 21 days when consumed as fish oil (TAG) or sn-1(3) MAG. The secondary objectives were to assess accretion of EPA in plasma over 21 days and also to assess the pharmacokinetics of EPA after an acute dose either in the form of sn-1(3) MAG or TAG (AUC in chylomicrons over 10 hours postprandial).

Compound | level of EPA incorporated in red blood cells ([1]; compared with fish oil + XENICAL group, all P values lower than 0.05) | level of EPA incorporated in red blood cells ([1]; compared with fish oil group without XENICAL) | carrier for EPA compared with fish oil (TAG) ([2]; obese subjects treated with XENICAL (ORLISTAT)) | chronic effect: accretion of EPA in erythrocytes after 21 days ([2]; obese volunteers, with XENICAL (ORLISTAT), compared with fish oil + XENICAL, p=0.0001, FIG. 5) | chronic effect: accretion of EPA in plasma after 21 days ([2]; obese volunteers, with XENICAL (ORLISTAT), relative to fish oil + XENICAL, p=0.0003, FIG. 6) | EPA incorporation in red blood cells ([1]; rats fed fish oil with XENICAL (ORLISTAT) vs fish oil without, day 7)
CC/C=C\C/C=C\C/C=C\C/C=C\C/C=C\CCCC(=O)OCC(O)CO (stereo not drawn) [sn-1(3) MAG, sn-1(3)-monoeicosapentaenoylglycerol] | statistically higher | even higher than the fish oil group | better carrier for EPA than fish oil | statistically significant | statistically significant | –
CCCCCCCCCCC[C@@H](C[C@@H]1OC(=O)[C@H]1CCCCCC)OC(=O)[C@H](CC(C)C)NC=O [XENICAL® (ORLISTAT), tetrahydrolipstatin, reference compound] | – | – | – | – | – | decreases EPA incorporation in red blood cells
